The target of data set [1] is T1, AbKGSADH (α-ketoglutarate-semialdehyde dehydrogenase) (Azospirillum brasilense, UniProt Q1JUP4).
T1 construct: gene araE; Met1-Val481 modelled; tetramer about 200 kDa
Nature of the data set: X-ray crystal structure, […] Å in Table […] ([…] Å in text). The following applies: NAD-binding site between N- and C-terminal domains.

Data set [2] deals with the molecule itself. The data set can be described thus: crystal structure; apo-form and complex with NAD+; space group P4(3)22, two molecules in the asymmetric unit, tetramer generated by crystallographic two-fold symmetry; crystals from 16% PEG 3350, 0.1 M sodium cacodylate pH 6.5, 0.2 M MgCl2, 295 K.

The term stoichiometry N denotes the number of molecules, sites or subunits per partner or assembly.

In the case of `NC(=O)c1ccc[n+]([C@@H]2O[C@H](COP(=O)(O)OP(=O)(O)OC[C@H]3O[C@@H](n4cnc5c(N)ncnc54)[C@H](O)[C@@H]3O)[C@@H](O)[C@H]2O)c1` [NAD^+], the “X-ray crystal structure, 2.30 Å in Table 1 (2.6 Å in text)” value in data set [1] is “determined the crystal structure of the protein in complex with NAD^+”.

B1: α-ketoglutarate-semialdehyde dehydrogenase from Azospirillum basilensis (AbKGSADH) (enzyme, UniProt Q1JUP4 1-481, looked up)
chain: MANVTYTDTQLLIDGEWVDAASGKTIDVVNPATGKPIGRVAHAGIADLDRALAAAQSGFEAWRKVPAHERAATMRKAAALVRERADAIAQLMTQEQGKPLTEARVEVLSAADIIEWFADEGRRVYGRIVPPRNLGAQQTVVKEPVGPVAAFTPWNFPVNQVVRKLSAALATGCSFLVKAPEETPASPAALLRAFVDAGVPAGVIGLVYGDPAEISSYLIPHPVIRKVTFTGSTPVGKQLASLAGLHMKRATMELGGHAPVIVAEDADVALAVKAAGGAKFRNAGQVCISPTRFLVHNSIRDEFTRALVKHAEGLKVGNGLEEGTTLGALANPRRLTAMASVIDNARKVGASIETGGERIGSEGNFFAPTVIANVPLDADVFNNEPFGPVAAIRGFDKLEEAIAEANRLPFGLAGYAFTRSFANVHLLTQRLEVGMLWINQPATPWPEMPFGGVKDSGYGSEGGPEALEPYLVTKSVTVMAV
notes: α-ketoglutarate-semialdehyde dehydrogenase (KGSADH) of the alternative L-arabinose pathway, Azospirillum brasilense; the limits Met1 and Val481 are those of the domains told for the crystal structure; The vector adds a 6xHis tag and an rTEV protease site at the N-terminus; no cleavage step is described; also called aldehyde dehydrogenase from Azospirillum brasilense; 3-HP producing ALDH; source: …
Take B1: the “stoichiometry N” value in data set [2] is 4.

(Values after publication PMC5385487, “Structural insights into the production of 3-hydroxypropionic acid by aldehyde dehydrogenase from Azospirillum brasilense” (Scientific Reports, 2017).)
